System: Huh-7 cells
Experiment: alamarBlue cell viability (metabolic activity) assay
Type: cell-based
Settings: analogous experiments, FIG. 10
Description: The Huh-7 human liver cell line was used.
After 24 h exposure with compounds 7 or 17, the conditioned medium was removed from the cells and used for the LDH leakage assay (see below). Freshly prepared alamarBlue cell viability reagent (Invitrogen, diluted 1:10 in CCM) was added, followed by incubation for 3 h at 37° C. and 5% CO2. The resulting resorufin fluorescence was read using an Optima Fluostar plate reader (BMG Labtech) Ex: 544 nm/Em: 590 nm. Dimethyl sulfoxide 5% and CCM alone (i.e. compounds 7 and 17 0 μM) were used as positive and negative controls for cell death, respectively.

## N#Cc1ccc2c(c1)Nc1ncnc3c1c-2cn3[C@@H]1O[C@H](COP(=O)(O)O)[C@@H](O)[C@H]1O [7a, ((2R,3S,4R,5R)-5-(8-cyano-2,3,5,6-tetraazaaceanthrylen-2(6H)-yl)-3,4-dihydroxytetrahydrofuran-2-yl)methyl dihydrogen phosphate]
  toxicity (cytotoxicity assessment, monophosphate): non-toxic

Source: patent publication US20240209016A1, “FLUORESCENT NUCLEOSIDE PHOSPHATES” (STEALTH LABELS BIOTECH AB, priority 2021, published 2024)
